Laboratory results as given in US12071414B2, “Apelin receptor agonists and methods of use thereof” (Sanford Burnham Prebys Medical Discovery Institute, priority 2015, dated 2024).

Target: T1, human apelin receptor (APJ, AGTRL-one, APLNR) (Homo sapiens, UniProt P35414)
T1 construct: host or cells: Chinese hamster ovary cells, stably integrated receptor
T1 sequence (P35414 1-380): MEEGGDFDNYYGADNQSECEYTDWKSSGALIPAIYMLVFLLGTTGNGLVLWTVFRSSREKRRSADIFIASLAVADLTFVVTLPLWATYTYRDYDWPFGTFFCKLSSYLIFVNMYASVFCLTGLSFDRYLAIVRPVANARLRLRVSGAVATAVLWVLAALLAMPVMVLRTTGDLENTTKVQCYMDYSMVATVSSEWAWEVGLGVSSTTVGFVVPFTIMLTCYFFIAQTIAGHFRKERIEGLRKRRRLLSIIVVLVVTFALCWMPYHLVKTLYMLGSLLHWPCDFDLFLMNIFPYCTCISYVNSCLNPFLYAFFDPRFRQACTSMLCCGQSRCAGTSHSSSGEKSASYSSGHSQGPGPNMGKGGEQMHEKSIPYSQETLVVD
Experiment: cell-based cAMP TR-FRET assay of apelin receptor activation
Conditions: CHO cells expressing human APJ, forskolin-stimulated cAMP, 0.5 h incubation, 50% of control (apelin-13, 1 nM) response; read-out: Potency Category (EC50)
Procedure: The assays disclosed herein were performed using cell lines from DiscoveX, Inc. Biological activity was determined to the cell—based assay. This assay detects activation of the receptor by reporting on intracellular cyclic adenosine monophosphate (cAMP) level. Chinese hamster ovary cells engineered to express the stably integrated human apelin receptor (APJ, AGTRL—one, APLNR), pleaded into the wells of the microtiter plate. Cells were stimulated with […] to increase intracellular cyclic AMP. Immediately following, compounds were added to the range of final concentrations 0.0-100 μM, in DMSO (not to exceed a final DMSO concentration greater than 1% ν/ν), and allowed to incubate with the cells for 0.5 h. At the end of the incubation, cells were lysed to stop APJ signaling and cAMP was quantified using a commercially available competitive immunoassay kit that applies homogenous time—resolved florescence energy transfer (TR—FRET). The assay is based on the competition between a europium (Eu) chelate—labeled cAMP donor tracer and cellular cAMP for binding sites on a cAMP—specific monoclonal antibody labeled with an acceptor fluorophore. When antibodies are bound to the cAMP tracer light emissions at 320 nm stimulate the energy transfer from the donor to the acceptor, which in turn emits light at 665 nm. In the presence of competitive unlabeled cAMP (derived from the activity of the receptor or forskolin-stimulated production of cAMP), the labelled cAMP tracer is dissociated from the cAMP antibody, resulting in a loss of FRET signal. The amount of light emitted by the FRET is inversely proportional to the cAMP generated by the cell/receptor system. Potency and efficacy at APJ are reported in reference to the canonical APJ receptor agonist apelin—13 when tested at 1 nM. […] Compound efficacy (% response) is reported as a percentage of the maximal apein-13 response at 1 nM (control). Potencies were calculated by fitting a […] logistic curve to concentration response consisting of at least 10 discrete data points spanning effective range of the compounds in the cell-based assay that measures cAMP. […] Category B is 200-500 nM; Category C is 100-200 nM; Category D is 50-100 nM; and Category E is <50 nM.

Structure (SMILES)	EC50
COC(=O)c1ccc(CC(=O)Nc2nc3cc(OC)c(OC)cc3s2)cc1	> 500 nM
COC(=O)c1cccc(CC(=O)Nc2nc3cc(OC)c(OC)cc3s2)c1	> 500 nM
COc1cc2nc(NC(=O)Cc3ccc(C(=O)O)cc3)sc2cc1OC	> 500 nM
COc1cc2nc(NC(=O)Cc3cccc(C(=O)O)c3)sc2cc1OC	> 500 nM
COc1cc2nc(NC(=O)Cc3ccccc3C(=O)O)sc2cc1OC	> 500 nM
CCS(=O)(=O)c1ccc(C(C)C(=O)Nc2nc3cc(OC)c(OC)cc3s2)cc1 (centres unmarked)	> 500 nM
COc1ccc(OC(C(=O)Nc2nc3cc(OC)c(OC)cc3s2)c2ccccc2S(=O)(=O)c2ccc(F)cc2)cc1 (centres unmarked)	> 500 nM
CCS(=O)(=O)c1cccc(C(Oc2ccc(OC)cc2)C(=O)Nc2nc3cc(OC)c(OC)cc3s2)c1 (centres unmarked)	> 500 nM
CCS(=O)(=O)c1ccc(C(Oc2ccccc2C)C(=O)Nc2nc3cc(OC)c(OC)cc3s2)cc1 (centres unmarked)	> 500 nM
CCS(=O)(=O)c1ccc(C(Oc2ccccc2Cl)C(=O)Nc2nc3cc(OC)c(OC)cc3s2)cc1 (centres unmarked)	> 500 nM
CCS(=O)(=O)c1ccc(C(OCc2ccccc2)C(=O)Nc2nc3cc(OC)c(OC)cc3s2)cc1 (centres unmarked)	> 500 nM
CCS(=O)(=O)c1ccc(C(OCC(C)C)C(=O)Nc2nc3cc(OC)c(OC)cc3s2)cc1 (centres unmarked)	> 500 nM
CCS(=O)(=O)c1ccc(C(OCC=C(C)C)C(=O)Nc2nc3cc(OC)c(OC)cc3s2)cc1 (centres unmarked)	> 500 nM
CCS(=O)(=O)c1ccc(C(OC2CCOCC2)C(=O)Nc2nc3cc(OC)c(OC)cc3s2)cc1 (centres unmarked)	> 500 nM
CCS(=O)(=O)c1ccc(C(Oc2ccc(OC)cc2)C(=O)Nc2nc3ccc4c(c3s2)OCCO4)cc1 (centres unmarked)	> 500 nM
CCS(=O)(=O)c1ccc(C(Oc2ccc(OC)cc2)C(=O)Nc2nc3ccc(OC)cc3s2)cc1 (centres unmarked)	> 500 nM
CCS(=O)(=O)c1ccc(C(Oc2ccc(C#N)cc2)C(=O)Nc2nc3ccc(OC)cc3s2)cc1 (centres unmarked)	> 500 nM
COc1ccc(OC(C(=O)Nc2nc3cc(OC)c(OC)cc3s2)c2ccccc2S(=O)(=O)c2ccc(OC)cc2)cc1 (centres unmarked)	> 500 nM
COc1ccc(OC(C(=O)Nc2nc3cc(OC)c(OC)cc3s2)c2cccc(S(=O)(=O)c3ccc(F)cc3)c2)cc1 (centres unmarked)	> 500 nM
CCS(=O)(=O)c1ccc(C(Oc2cccc(Cl)c2)C(=O)Nc2nc3cc(OC)c(OC)cc3s2)cc1 (centres unmarked)	> 500 nM
CCS(=O)(=O)c1ccc(C(Oc2cccc(C)c2)C(=O)Nc2nc3cc(OC)c(OC)cc3s2)cc1 (centres unmarked)	> 500 nM
CCS(=O)(=O)c1ccc(C(Oc2ccccc2)C(=O)Nc2nc3cc(OC)c(OC)cc3s2)cc1 (centres unmarked)	> 500 nM
CCS(=O)(=O)c1ccc(C(OCCOC)C(=O)Nc2nc3cc(OC)c(OC)cc3s2)cc1 (centres unmarked)	> 500 nM

Structure (SMILES)	EC50
CCS(=O)(=O)c1ccc(C(Oc2ccc(OC)cc2)C(=O)Nc2nc3ccc4c(c3s2)OCO4)cc1 (centres unmarked)	> 500 nM
CCS(=O)(=O)c1ccc(C(Oc2ccc(C#N)cc2)C(=O)Nc2nc3ccc4c(c3s2)OCO4)cc1 (centres unmarked)	> 500 nM
CCS(=O)(=O)c1ccc(C(Oc2ccc(C#N)cc2)C(=O)Nc2nc3cc(OC)ccc3s2)cc1 (centres unmarked)	> 500 nM
CCS(=O)(=O)c1ccc(C(Oc2ccc(OC)cc2)C(=O)Nc2nc3cc4c(cc3s2)OCO4)cc1 (centres unmarked)	> 500 nM
CCS(=O)(=O)c1ccc(C(Oc2ccc(OC)cc2)C(=O)Nc2nc3c(OC)ccc(OC)c3s2)cc1 (centres unmarked)	> 500 nM
CCS(=O)(=O)c1ccc(C(Oc2ccc(C#N)cc2)C(=O)Nc2nc3ccc(N4CCN(C)CC4)cc3s2)cc1 (centres unmarked)	> 500 nM
CCS(=O)(=O)c1ccc(C(Oc2ccc3ccccc3c2)C(=O)Nc2nc3cc(OC)c(OC)cc3s2)cc1 (centres unmarked)	> 500 nM
CCS(=O)(=O)c1ccc(C(Oc2cccc3ccccc23)C(=O)Nc2nc3cc(OC)c(OC)cc3s2)cc1 (centres unmarked)	> 500 nM
CCS(=O)(=O)c1ccc(C(Oc2ccc(C#N)cc2)C(=O)Nc2nc3cc4c(cc3s2)OCCO4)cc1 (centres unmarked)	> 500 nM
CCS(=O)(=O)c1ccc(C(Oc2ccc(C#N)cc2)C(=O)Nc2nc3cc4c(cc3s2)OCO4)cc1 (centres unmarked)	> 500 nM
CCS(=O)(=O)c1ccc(C(Oc2ccc(C#N)cc2)C(=O)Nc2nc3ccc(N4CCOCC4)cc3s2)cc1 (centres unmarked)	> 500 nM
CCCCOc1ccc(OC(C(=O)Nc2nc3cc(OC)c(OC)cc3s2)c2ccc(S(=O)(=O)CC)cc2)cc1 (centres unmarked)	> 500 nM
CCS(=O)(=O)c1ccc(C(OCCc2ccccc2)C(=O)Nc2nc3cc(OC)c(OC)cc3s2)cc1 (centres unmarked)	> 500 nM
CCS(=O)(=O)c1ccc(C(OCc2ccc(C#N)cc2)C(=O)Nc2nc3cc(OC)c(OC)cc3s2)cc1 (centres unmarked)	> 500 nM
CCS(=O)(=O)c1ccc(C(OCCCOC)C(=O)Nc2nc3cc(OC)c(OC)cc3s2)cc1 (centres unmarked)	> 500 nM
CCS(=O)(=O)c1ccc(C(Nc2ccc(OC)cc2)C(=O)Nc2nc3cc(OC)c(OC)cc3s2)cc1 (centres unmarked)	> 500 nM
CCS(=O)(=O)c1ccc(C(Oc2ccc(C#N)cc2)C(=O)Nc2nc3c4c(ccc3s2)OCO4)cc1 (centres unmarked)	> 500 nM
CCS(=O)(=O)c1ccc(C(Oc2ccc(C#N)cc2)C(=O)Nc2nc3c4c(ccc3s2)OCCO4)cc1 (centres unmarked)	> 500 nM
CCN(CC)c1ccc2sc(NC(=O)C(Oc3ccc(C#N)cc3)c3ccc(S(=O)(=O)CC)cc3)nc2c1 (centres unmarked)	> 500 nM
COc1ccc(S(=O)(=O)c2cccc(C(Oc3ccc(C#N)cc3)C(=O)Nc3nc4cc(OC)c(OC)cc4s3)c2)cc1 (centres unmarked)	> 500 nM
CCS(=O)(=O)c1ccc(C(Oc2ccc(OCc3ccccc3)cc2)C(=O)Nc2nc3cc(OC)c(OC)cc3s2)cc1 (centres unmarked)	> 500 nM
CCS(=O)(=O)c1ccc(C(OCC2CCCCC2)C(=O)Nc2nc3cc(OC)c(OC)cc3s2)cc1 (centres unmarked)	> 500 nM
CCS(=O)(=O)c1ccc(C(Nc2ccc(C)cc2)C(=O)Nc2nc3cc(OC)c(OC)cc3s2)cc1 (centres unmarked)	> 500 nM

Structure (SMILES)	EC50
CCS(=O)(=O)c1ccc(C(Oc2ccc(C#N)cc2)C(=O)Nc2nc3cc(OC)c(OC)cc3n2C)cc1 (centres unmarked)	> 500 nM
COc1cc2nc(NC(=O)C(Oc3ccc(C#N)cc3)c3cccc(Br)c3)sc2cc1OC (centres unmarked)	> 500 nM
CCS(=O)(=O)c1ccc(C(OCC2CCOCC2)C(=O)Nc2nc3cc(OC)c(OC)cc3s2)cc1 (centres unmarked)	> 500 nM
CCS(=O)(=O)c1ccc(C(NC2CCCC2)C(=O)Nc2nc3cc(OC)c(OC)cc3s2)cc1 (centres unmarked)	> 500 nM
CCS(=O)(=O)c1ccc(C(NCC(C)C)C(=O)Nc2nc3cc(OC)c(OC)cc3s2)cc1 (centres unmarked)	> 500 nM
CCS(=O)(=O)c1ccc(C(Nc2cccc(OC)c2)C(=O)Nc2nc3cc(OC)c(OC)cc3s2)cc1 (centres unmarked)	> 500 nM
CCS(=O)(=O)c1ccc(C(Nc2cccc(C)c2)C(=O)Nc2nc3cc(OC)c(OC)cc3s2)cc1 (centres unmarked)	> 500 nM
COc1cc2nc(NC(=O)C(Oc3ccc(C#N)cc3)c3ccc(S(=O)(=O)c4ccc(C(F)(F)F)cc4)cc3)sc2cc1OC (centres unmarked)	> 500 nM
CCS(=O)(=O)c1cccc(C(Oc2ccc(C#N)cc2)C(=O)Nc2nc3ccc(OCCOC)cc3s2)c1 (centres unmarked)	> 500 nM
COc1cc2nc(NC(=O)C(Oc3ccc(C#N)cc3)c3ccc(C(=O)O)cc3)sc2cc1OC (centres unmarked)	> 500 nM
COc1cc2nc(NC(=O)C(Oc3ccc(C#N)cc3)c3ccc(C(F)(F)F)cc3)sc2cc1OC (centres unmarked)	> 500 nM
CCS(=O)(=O)c1ccc(C(Nc2ccccc2C)C(=O)Nc2nc3cc(OC)c(OC)cc3s2)cc1 (centres unmarked)	> 500 nM
CCS(=O)(=O)c1ccc(C(Nc2ccccc2OC)C(=O)Nc2nc3cc(OC)c(OC)cc3s2)cc1 (centres unmarked)	> 500 nM
CCS(=O)(=O)c1ccc(C(Oc2ccc(C#N)cc2)C(=O)Nc2nc3cc(C)c(OC)cc3s2)cc1 (centres unmarked)	> 500 nM
CCS(=O)(=O)c1ccc(C(Oc2ccc(C#N)cc2)C(=O)Nc2nc3ccc(OCCO)cc3s2)cc1 (centres unmarked)	> 500 nM
CCS(=O)(=O)c1ccc(C(Oc2ccc(C#N)cc2)C(=O)Nc2nc3cc(F)c(OC)cc3s2)cc1 (centres unmarked)	> 500 nM
CCS(=O)(=O)c1ccc(C(Oc2ccc(C#N)cc2)C(=O)Nc2nc3cc(OCc4ccccc4)c(OC)cc3s2)cc1 (centres unmarked)	> 500 nM
CCCCc1ccc(OC(C(=O)Nc2nc3cc(OC)c(OC)cc3s2)c2ccc(S(=O)(=O)CC)cc2)cc1 (centres unmarked)	> 500 nM
CCS(=O)(=O)c1ccc(C(Oc2ccc(C#N)cc2)C(=O)Nc2nc3ncc(OC)cc3s2)cc1 (centres unmarked)	> 500 nM
CCS(=O)(=O)c1ccc(C(Oc2ccc(C#N)cc2)C(=O)Nc2nc3ccc(OCCN4CCN(C)CC4)cc3s2)cc1 (centres unmarked)	> 500 nM
CCS(=O)(=O)c1ccc(C(Oc2ccc(C#N)cc2)C(=O)Nc2nc3nc(OCCOC)c(OC)cc3s2)cc1 (centres unmarked)	> 500 nM
CCS(=O)(=O)c1ccc(C(Oc2ccc(C3CCCCC3)cc2)C(=O)Nc2nc3cc(OC)c(OC)cc3s2)cc1 (centres unmarked)	> 500 nM
